Source: the Kinase Knowledgebase extract (Sharma et al. 2016)

target: EGFR (UniProt P00533); assay: Inhibition of EGFR Kinase Activity
Sequence (P00533 whole entry, looked up): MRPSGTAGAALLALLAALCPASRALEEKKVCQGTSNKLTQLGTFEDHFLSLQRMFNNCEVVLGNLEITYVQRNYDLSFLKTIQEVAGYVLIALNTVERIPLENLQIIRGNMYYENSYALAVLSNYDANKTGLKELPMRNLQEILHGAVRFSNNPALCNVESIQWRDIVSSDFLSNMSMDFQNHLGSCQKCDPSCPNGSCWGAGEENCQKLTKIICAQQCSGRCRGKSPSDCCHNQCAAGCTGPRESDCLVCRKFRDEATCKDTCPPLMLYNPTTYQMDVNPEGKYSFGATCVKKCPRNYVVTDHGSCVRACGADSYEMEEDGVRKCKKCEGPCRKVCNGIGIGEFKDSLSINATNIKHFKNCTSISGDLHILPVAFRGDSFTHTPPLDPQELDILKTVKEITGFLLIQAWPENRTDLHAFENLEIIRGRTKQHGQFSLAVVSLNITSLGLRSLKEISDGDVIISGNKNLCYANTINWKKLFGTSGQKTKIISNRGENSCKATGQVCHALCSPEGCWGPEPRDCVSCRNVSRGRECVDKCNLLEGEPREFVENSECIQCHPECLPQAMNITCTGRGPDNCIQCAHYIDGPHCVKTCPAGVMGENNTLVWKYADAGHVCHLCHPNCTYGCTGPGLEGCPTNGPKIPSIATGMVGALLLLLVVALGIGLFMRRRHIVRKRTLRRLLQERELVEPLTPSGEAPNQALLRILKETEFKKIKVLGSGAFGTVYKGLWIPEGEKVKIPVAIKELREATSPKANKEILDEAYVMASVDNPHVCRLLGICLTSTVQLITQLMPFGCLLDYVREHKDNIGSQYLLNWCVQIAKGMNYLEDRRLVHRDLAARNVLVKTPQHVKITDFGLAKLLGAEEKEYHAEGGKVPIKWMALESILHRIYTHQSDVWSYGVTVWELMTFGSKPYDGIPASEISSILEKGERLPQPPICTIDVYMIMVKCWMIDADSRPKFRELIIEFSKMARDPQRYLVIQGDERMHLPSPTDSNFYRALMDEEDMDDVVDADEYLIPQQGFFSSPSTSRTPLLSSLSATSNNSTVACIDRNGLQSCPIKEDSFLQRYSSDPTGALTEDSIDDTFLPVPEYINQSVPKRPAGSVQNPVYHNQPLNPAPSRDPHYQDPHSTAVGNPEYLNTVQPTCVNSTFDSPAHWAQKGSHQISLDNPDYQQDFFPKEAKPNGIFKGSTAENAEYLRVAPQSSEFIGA

IC50, < 50 µM:
CC#CC(=O)Nc1cccc(Nc2ncnc(N(CC)c3ccc(OCCC)c(OCCC)c3)n2)c1
C=CCN(c1cccc(CC(=O)OC)c1)c1ncnc(Nc2ccc(NC(=O)C=C)cc2)n1
CC#CC(=O)Nc1cccc(Nc2ncnc(Nc3ccc(OCCOC)c(OC)c3)n2)c1
CC#CC(=O)Nc1cccc(Nc2ncnc(N(C)c3cccc(Cl)c3)n2)c1
CC#CC(=O)Nc1cccc(Nc2ncnc(N(C)c3cccc(S(=O)(=O)c4ccc([N+](=O)[O-])cc4)c3)n2)c1
C=CC(=O)Nc1cccc(Nc2ncnc(Nc3cccc4ccccc34)n2)c1
C=CC(=O)Nc1ccc(Nc2ncnc(N(CC)c3cccc(Cl)c3)n2)cc1
C=CC(=O)Nc1cccc(Nc2ncnc(Nc3ccc4c(ccn4Cc4ccccc4)c3)n2)c1
C=CC(=O)Nc1cccc(Nc2ncnc(N3CCCc4ccc(Cl)cc43)n2)c1
C=CC(=O)Nc1ccc(Nc2ncnc(N(C)c3ccc(OC)c(OC)c3)n2)cc1
C=CC(=O)Nc1ccc(Nc2ncnc(Nc3cccc(C(N)=O)c3)n2)cc1
C=CCN(c1ncnc(Nc2cccc(NC(=O)C=C)c2)n1)n1c(=O)[nH]c2ccccc21
C=CCN(c1ccc2NN(=Cc2c1)Cc3ccccn3)c4ncnc(Nc5ccc(NC(=O)C=C)cc5)n4
C=CCN(c1ccc(OCCO)cc1)c1ncnc(Nc2cccc(NC(=O)C#CC)c2)n1
C=CC(=O)Nc1ccc(Nc2ncnc(N(C)c3cccc(CC(=O)OC)c3)n2)cc1
CC#CC(=O)Nc1cccc(Nc2ncnc(Nc3ccc(OCc4ccccc4)c(Cl)c3)n2)c1
C=CCN(c1ncnc(Nc2ccc(NC(=O)C=C)cc2)n1)c1cccc2ccccc12
C=CC(=O)N(CCCN1CCOCC1)c1cccc(Nc2ncnc(Nc3cccc4ccccc34)n2)c1
CC#CC(=O)Nc1cccc(Nc2ncnc(Nc3cccc(S(=O)(=O)c4ccc([N+](=O)[O-])cc4)c3)n2)c1
C=CC(=O)Nc1cc(Nc2ncnc(N(C)c3ccc(OCc4ccccc4)c(Cl)c3)n2)ccc1OCCCN1CCOCC1
CC#CC(=O)Nc1cccc(Nc2ncnc(N(CC)c3ccc(C(=O)OC)cc3)n2)c1
CC#CC(=O)Nc1cccc(Nc2ncnc(N(CC)C3CC3c3ccc(Cl)cc3)n2)c1 (stereo not given)
C=CC(=O)Nc1ccc(Nc2ncnc(NN3CCCc4cc(OC)ccc43)n2)cc1
C=CC(=O)Nc1cccc(Nc2ncnc(Nc3cc(Cl)ccc3C)n2)c1
C=CC(=O)Nc1cccc(Nc2ncnc(Nn3c(=O)n(C(=O)C(C)(C)C)c4ccccc43)n2)c1
C=CC(=O)n1ncc2cc(Nc3ncnc(Nc4ccc5c(cnn5Cc5ccccc5)c4)n3)ccc21
CC#CC(=O)Nc1cccc(Nc2ncnc(N(CC)c3ccc(OCC)c(OCC)c3)n2)c1
C=CC(=O)Nc1cccc(Nc2ncnc(N(C)c3cccc(S(=O)(=O)c4ccc([N+](=O)[O-])cc4)c3)n2)c1
CC#CC(=O)Nc1cccc(Nc2ncnc(N(C)C3CC3c3ccc(Cl)cc3)n2)c1 (stereo not given)
C=CC(=O)Nc1cccc(Nc2ncnc(Nc3cccc(C(N)=O)c3)n2)c1
CC#CC(=O)Nc1cc(Nc2ncnc(Nc3ccc4c(ccn4Cc4ccccc4)c3)n2)ccc1OCCCC1CCN(C)CC1
C=CC(=O)Nc1cccc(Nc2ncnc(NC3CC3c3ccc(Cl)cc3)n2)c1 (stereo not given)
C=CC(=O)N(CCCN1CCOCC1)c1cccc(Nc2ncnc(Nc3ccc(OCCO)cc3)n2)c1
C=CC(=O)Nc1cccc(Nc2ncnc(N(CC)c3cccc(CC(=O)OC)c3)n2)c1
CC#CC(=O)Nc1cccc(Nc2ncnc(N(C)c3ccc(OC)c(OC)c3)n2)c1
C=CC(=O)Nc1ccc(Nc2ncnc(Nc3ccc(F)c(Cl)c3)n2)cc1
C=CCN(c1ccc(C(=O)OC)cc1)c1ncnc(Nc2cccc(NC(=O)C=C)c2)n1
C=CC(=O)Nc1cccc(Nc2ncnc(Nc3ccc(OCc4ccc(Cl)c(Cl)c4)c(C(F)(F)F)c3)n2)c1
CC#CC(=O)Nc1cccc(Nc2ncnc(N(C)c3cc(OC)c(OC)c(OCCN4CCOCC4)c3)n2)c1
CC#CC(=O)Nc1cccc(Nc2ncnc(Nc3cccc(CC(=O)OC)c3)n2)c1
C=CC(=O)Nc1ccc(Nc2ncnc(N(C)n3c(=O)n(C(=O)C(C)(C)C)c4ccccc43)n2)cc1
C=CC(=O)Nc1ccc(Nc2ncnc(Nc3ccc(OCCC)c(OCCC)c3)n2)cc1
CC#CC(=O)Nc1cccc(Nc2ncnc(N(CC)C3CC3c3ccccc3)n2)c1 (stereo not given)
C=CC(=O)Nc1ccc(Nc2ncnc(N(C)c3ccc(OCCO)cc3)n2)cc1
C=CC(=O)Nc1cccc(Nc2ncnc(Nn3c(=O)[nH]c4ccccc43)n2)c1
C=CC(=O)Nc1ccc(Nc2ncnc(N(CC)c3cccc4ccccc34)n2)cc1
C=CCN(c1ccc(OCC)c(OCC)c1)c1ncnc(Nc2ccc(NC(=O)C=C)cc2)n1
C=CC(=O)Nc1cccc(Nc2ncnc(N(CC)c3cccc(S(=O)(=O)c4ccc([N+](=O)[O-])cc4)c3)n2)c1
CCN(c1ccc2NN(=Cc2c1)Cc3ccccn3)c4ncnc(Nc5ccc(NC(=O)C=C)cc5)n4
C=CC(=O)Nc1cccc(Nc2ncnc(NN3CCCc4c(Cl)cccc43)n2)c1
C=CCN(c1cc(OC)c(OC)c(OCCN2CCOCC2)c1)c1ncnc(Nc2cccc(NC(=O)C#CC)c2)n1
CCN(c1ccc2NN(=Cc2c1)Cc3ccccn3)c4ncnc(Nc5cccc(NC(=O)C#CC)c5)n4
CC#CC(=O)Nc1cccc(Nc2ncnc(N(C)n3c(=O)[nH]c4ccccc43)n2)c1
C=CCN(c1ccc(OC)c(OC)c1)c1ncnc(Nc2cccc(NC(=O)C=C)c2)n1
C=CC(=O)Nc1cc(Nc2ncnc(N(C)c3cccc(Cl)c3)n2)ccc1OCCCC1CCN(C)CC1
C=CC(=O)Nc1ccc(Nc2ncnc(Nc3cc(Cl)cc4ccccc34)n2)cc1
C=CCC(=O)Nc1cccc(Nc2ncnc(Nc3ccc4NN(=Cc4c3)Cc5ccccn5)n2)c1
C#CCC(=O)Nc1cccc(Nc2ncnc(NN3CCCc4ccc(C(F)(F)F)cc43)n2)c1
C=CCN(c1ccc(F)c(Cl)c1)c1ncnc(Nc2cccc(NC(=O)C=C)c2)n1
CC#CC(=O)Nc1cccc(Nc2ncnc(Nc3ccc4c(ccn4Cc4ccccc4)c3)n2)c1
C=CC(=O)Nc1ccc(Nc2ncnc(N(CC)C3CC3c3ccccc3)n2)cc1 (stereo not given)
C=CCN(c1ccc(OC)c(OCCOC)c1)c1ncnc(Nc2cccc(NC(=O)C#CC)c2)n1
CC#CC(=O)Nc1cccc(Nc2ncnc(Nc3cccc(C(N)=O)c3)n2)c1
C=CC(=O)Nc1ccc(Nc2ncnc(Nc3ccc(OC)cc3)n2)cc1
CC#CC(=O)Nc1cccc(Nc2ncnc(N(C)c3ccc(OC)c(OCCOC)c3)n2)c1
C=CC(=O)Nc1ccc(Nc2ncnc(Nc3cccc(Cl)c3)n2)cc1
C=CC(=O)Nc1ccc(Nc2ncnc(NN3CCCc4ccc(C(F)(F)F)cc43)n2)cc1
C=CC(=O)Nc1cccc(Nc2ncnc(N(C)c3cc(Cl)ccc3C)n2)c1
CC#CC(=O)Nc1cccc(Nc2ncnc(N(CC)c3cccc(C(N)=O)c3)n2)c1
C=CCN(c1ncnc(Nc2cccc(NC(=O)C#CC)c2)n1)C1CC1c1ccc(Cl)cc1 (stereo not given)
C=CC(=O)Nc1ccc(Nc2ncnc(N(C)c3cccc(C(N)=O)c3)n2)cc1
CC#CC(=O)Nc1cccc(Nc2ncnc(N(CC)c3ccc4c(cnn4Cc4ccccc4)c3)n2)c1
C=CC(=O)Nc1ccc(Nc2ncnc(N(CC)n3c(=O)n(C(=O)C(C)(C)C)c4ccccc43)n2)cc1
C=CC(=O)Nc1cc(Nc2ncnc(Nc3ccc(OCc4ccccc4)c(Cl)c3)n2)ccc1OCCCN1CCOCC1
C=CC(=O)Nc1ccc(Nc2ncnc(NN3CCCc4cc(Cl)ccc43)n2)cc1
C=CC(=O)Nc1ccc(Nc2ncnc(N(CC)c3ccc(OCc4ccccc4)cc3)n2)cc1
C=CC(=O)Nc1cccc(Nc2ncnc(Nc3cccc(Cl)c3)n2)c1
C=CC(=O)N(OCCCN1CCOCC1)c1cccc(Nc2ncnc(NN3CCCc4ccc(Cl)cc43)n2)c1
C=CC(=O)Nc1ccc(Nc2ncnc(N(C)C3CC3c3ccc(Cl)cc3)n2)cc1 (stereo not given)
C=CC(=O)N(CCCN1CCOCC1)c1cccc(Nc2ncnc(Nc3ccc(OCc4ccccc4)cc3)n2)c1
C=CC(=O)Nc1cccc(Nc2ncnc(N(C)c3ccc(OC)c(OCCOC)c3)n2)c1
C=CCN(c1ncnc(Nc2cccc(NC(=O)C#CC)c2)n1)n1c(=O)n(C(=O)C(C)(C)C)c2ccccc21
C#CCC(=O)Nc1cccc(Nc2ncnc(NN3CCCc4cc(OC)ccc43)n2)c1
CC#CC(=O)Nc1cccc(Nc2ncnc(N(C)c3cc(Cl)cc4ccccc34)n2)c1
C=CC(=O)Nc1cccc(Nc2ncnc(N(C)c3cccc(C)c3)n2)c1
